The results in this text go back to patent US7189720B2 (H. Lundbeck A/S, priority 1999, dated 2007).

Molecules are shown by their SMILES.

One may read the Ki as the equilibrium dissociation constant of an inhibitor or competing ligand from its target.

One assay concerns the target T1, human Y5 receptor (Homo sapiens, UniProt Q15761).
T1 construct: expressed in transfected cells; host or cells: mouse fibroblast LM(tk-) cells, e.g. L-hY5-7 (ATCC CRL-11995)
T1 sequence (Q15761 1-445): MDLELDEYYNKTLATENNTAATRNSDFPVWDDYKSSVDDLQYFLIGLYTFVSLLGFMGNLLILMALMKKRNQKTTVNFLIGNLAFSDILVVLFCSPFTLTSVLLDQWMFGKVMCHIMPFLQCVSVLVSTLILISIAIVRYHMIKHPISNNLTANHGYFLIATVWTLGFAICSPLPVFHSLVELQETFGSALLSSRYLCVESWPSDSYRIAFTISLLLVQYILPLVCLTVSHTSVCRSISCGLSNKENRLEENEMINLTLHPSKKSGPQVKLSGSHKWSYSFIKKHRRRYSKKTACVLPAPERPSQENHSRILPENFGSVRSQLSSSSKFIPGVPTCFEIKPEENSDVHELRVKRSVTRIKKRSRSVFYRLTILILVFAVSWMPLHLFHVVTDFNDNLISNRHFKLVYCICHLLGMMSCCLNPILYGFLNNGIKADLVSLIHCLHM
The experiment in a line: Radioligand binding to membranes, cloned human Y5 receptor. The settings on record: Table 1; read-out: Ki (nM) hNPY-5.
`CC(C)Nc1nc(NCC2CCC(CNS(=O)(=O)c3cccc4ccccc34)CC2)nc(N(C)C)n1` (centres unmarked) [Example 17, N1-{[4-({[4-(dimethylamino)-6-(isopropylamino)-1,3,5-triazin-2-yl]amino}methyl)cyclohexyl]methyl}-1-naphthalenesulfonamide]: the Ki came to 27 nM.

`C=CCNc1nc(NCC2CCC(CNS(=O)(=O)c3cccc4ccccc34)CC2)nc(NC(C)C)n1` (centres unmarked) [Example 3, N1-{[4-({[4-(Allylamino)-6-(isopropylamino)-1,3,5-triazin-2-yl]amino}methyl)cyclohexyl]methyl}-1-naphthalenesulfonamide]: the inhibition constant (Ki) amounted to 12 nM.

`CC(C)Nc1nc(NCC2CCC(CNS(=O)(=O)c3cccc4ccccc34)CC2)nc(NC2CCC2)n1` (centres unmarked) [Example 7, N1-[4-([4-(cyclobutylamino)-6-(isopropylamino)-1,3,5-triazin-2-yl]aminomethyl)cyclohexyl]methyl-1-naphthalenesulfonamide]: the Ki came to 22 nM.

For `CCN(C)c1nc(NCC2CCC(CNS(=O)(=O)c3cccc4ccccc34)CC2)nc(NC(C)C)n1` (centres unmarked) [Example 18, N1-[4-([4-[ethyl(methyl)amino]-6-(isopropylamino)-1,3,5-triazin-2-yl]aminomethyl)cyclohexyl]methyl-1-naphthalenesulfonamide], the Ki is 32 nM.

As to `CC(C)Nc1nc(NCC2CCC(CNS(=O)(=O)c3cccc4ccccc34)CC2)nc(N(C)CCO)n1` (centres unmarked) [Example 26, N1-[4-([4-[(2-hydroxyethyl)(methyl)amino]-6-(isopropylamino)-1,3,5-triazin-2-yl]aminomethyl)cyclohexyl]methyl-1-naphthalenesulfonamide], the inhibitory constant (Ki) came to 86 nM.

Take `COC[C@@H]1CCCN1c1nc(NCC2CCC(CNS(=O)(=O)c3cccc4ccccc34)CC2)nc(NC(C)C)n1` (stereo partly drawn) [Example 21, N1-(4-[(4-(isopropylamino)-6-[(2S)-2-(methoxymethyl)tetrahydro-1H-1-pyrrolyl]-1,3,5-triazin-2-ylamino)methyl]cyclohexylmethyl)-1-naphthalenesulfonamide]: the Ki worked out at 71 nM.

The assay is the same for the next values; noted with them: Table 2; read-out: Ki (nM) hNPY-5.
For `CCNc1nc(NCC)nc(NCC2CCC(CNS(=O)(=O)c3ccc4nsnc4c3)CC2)n1` (centres unmarked) [Example 40, N5-[4-([4,6-di(ethylamino)-1,3,5-triazin-2-yl]aminomethyl)cyclohexyl]methyl-2,1,3-benzothiadiazole-5-sulfonamide], the inhibition constant (Ki) is 5 nM.

Consider `CCNc1nc(NCC)nc(NCC2CCC(CNS(=O)(=O)c3cc(C)ccc3OC)CC2)n1` (centres unmarked) [Example 31, N1-[4-([4,6-di(ethylamino)-1,3,5-triazin-2-yl]aminomethyl)cyclohexyl]methyl-2-methoxy-5-methyl-1-benzenesulfonamide], for which the Ki was found to be 25 nM.

On to `CCNc1nc(NCC)nc(NCC2CCC(CNS(=O)(=O)c3cccnc3)CC2)n1` (centres unmarked) [Example 34, N3-[4-([4,6-di(ethylamino)-1,3,5-triazin-2-yl]aminomethyl)cyclohexyl]methyl-3-pyridinesulfonamide], for which the Ki stood at 427 nM.

Staying with this assay, now noted: Table 3; read-out: Ki (nM) hNPY-5.
Consider `CN(C)S(=O)(=O)NCC1CCC(CNc2nc(Cl)nc(Cl)n2)CC1` (centres unmarked) [Example 53, N′-((4-(((4,6-dichloro-1,3,5-triazin-2-yl)amino)methyl)cyclohexyl)methyl)-N,N-dimethylsulfamide], for which the Ki is 20700 nM.

Still in this assay, the particulars now being: Table 5; read-out: Ki, nM hNPY-5.
In the case of `COc1ccc(C)cc1S(=O)(=O)N[C@H]1CC[C@H](CNc2nc(-c3ccccn3)cs2)CC1` [Example 83, trans-2-(4-(2-Methoxy-5-methylphenyl)sulfonylamino)-cyclohexylmethylamino-4-(2-pyridyl)thiazole dihydrogen chloride], the Ki turned out to be 4 nM.

On to `O=S(=O)(NCCCCCNc1nc(-c2nccs2)cs1)c1ccc(F)cc1` [Example 95, N1-(5-[4-(1,3-Thiazol-2-yl)-1,3-thiazol-2-yl]aminopentyl)-4-fluoro-1-benzenesulfonamide], for which the Ki was 179 nM.

With `Cc1nc(-c2csc(NCCCCCNS(=O)(=O)c3ccc(F)cc3)n2)c(C)s1` [Example 94, N1-(5-[4-(2,5-Dimethyl-1,3-thiazol-4-yl)-1,3-thiazol-2-yl]aminopentyl)-4-fluoro-1-benzenesulfonamide], the Ki came out at 19.5 nM.

The assay is the same for the next values; noted with them: Table 6; read-out: Ki, nM hNPY-5.
Regarding `CC(C)N(C=O)[C@H]1CC[C@H](CNc2nc3c(s2)CCSc2ccc(F)cc2-3)CC1` [Example 166, N-(4-[(9-Fluoro-4,5-dihydrobenzo[2,3]thiepino[4,5-d][1,3]thiazol-2-yl)amino]methylcyclohexyl)-N-isopropylformamide], the inhibition constant (Ki) stood at 6 nM.

Consider `COc1ccc(C)cc1S(=O)(=O)NC[C@H]1CC[C@H](Nc2nc3c(s2)CCSc2ccccc2-3)CC1` [Example 119, N1-{[4-(4,5-Dihydrobenzo[2,3]thiepino[4,5-d][1,3]thiazol-2-ylamino)cyclohexyl]methyl}-2-methoxy-5-methyl-1-benzenesulfonamide], for which the Ki is 14.1 nM.

Consider `Cc1cccc(F)c1S(=O)(=O)NCCCCCCNc1nc2c(s1)CCSc1ccccc1-2` [Example 149, N1-[6-(4,5-Dihydrobenzo[2,3]thiepino[4,5-d][1,3]thiazol-2-ylamino)hexyl]-2-fluoro-6-methyl-1-benzenesulfonamide], for which the inhibition constant (Ki) is 4 nM.

As to `O=S(=O)(Cc1ccccc1)NCCCCCCNc1nc2c(s1)CCSc1ccccc1-2` [Example 148, N-[6-(4,5-Dihydrobenzo[2,3]thiepino[4,5-d][1,3]thiazol-2-ylamino)hexyl]phenylmethane-sulfonamide], the inhibition constant Ki came out at 10.5 nM.

On to `O=[N+]([O-])c1ccccc1S(=O)(=O)NC[C@H]1CC[C@H](Nc2nc3c(s2)CCSc2ccccc2-3)CC1` [Example 124, N1-{[4-(4,5-Dihydrobenzo[2,3]thiepino[4,5-d][1,3]thiazol-2-ylamino)cyclohexyl]methyl}-2-nitro-1-benzenesulfonamide], for which the inhibitory constant (Ki) stood at 11.5 nM.

Consider `O=[N+]([O-])c1ccccc1S(=O)(=O)NCCCCCNc1nc2c(s1)CCSc1ccccc1-2` [Example 130, N1-[5-(4,5-Dihydrobenzo[2,3]thiepino[4,5-d][1,3]thiazol-2-ylamino)pentyl]-2-nitro-1-benzenesulfonamide], for which the inhibition constant Ki came out at 5.2 nM.

Consider `O=S(=O)(NC[C@H]1CC[C@H](Nc2nc3c(s2)CCSc2ccccc2-3)CC1)c1c(Cl)cccc1Cl` [Example 152, N1-{[4-(4,5-Dihydrobenzo[2,3]thiepino[4,5-d][1,3]thiazol-2-ylamino)cyclohexyl]methyl}-2,6-dichloro-1-benzenesulfonamide], for which the Ki was determined as 17.4 nM.

In the case of `CN(C)c1cccc2c(S(=O)(=O)NC[C@H]3CC[C@H](Nc4nc5c(s4)CCSc4ccccc4-5)CC3)cccc12` [Example 122, N1-{[4-(4,5-Dihydrobenzo[2,3]thiepino[4,5-d][1,3]thiazol-2-ylamino)cyclohexyl]methyl}-5-(dimethylamino)-1-naphthalenesulfonamide], the Ki worked out at 27 nM.

`CN(C)c1cccc2c(S(=O)(=O)NCCCCCCNc3nc4c(s3)CCSc3ccccc3-4)cccc12` [Example 115, N1-[6-(4,5-Dihydrobenzo[2,3]thiepino[4,5-d][1,3]thiazol-2-ylamino)hexyl]-5-(dimethylamino)-1-naphthalenesulfonamide]: the inhibitory constant (Ki) turned out to be 71 nM.

In the case of `Cn1cnc(S(=O)(=O)NCCCCCNc2nc3c(s2)CCSc2ccccc2-3)c1` [Example 111, N4-[5-(4,5-Dihydrobenzo[2,3]thiepino[4,5-d][1,3]thiazol-2-ylamino)pentyl]-1-methyl-1H-4-imidazolesulfonamide], the Ki is 17.2 nM.
